Experimental data from patent US6310051A, “Use of chelating agents in the treatment of atherosclerotic conditions” (Nycomed Imaging AS, priority 1997, dated 2001).

How the values were obtained:
human LDL = assay: Copper-catalyzed oxidation of human LDL in vitro, increase in absorbance at 234 nm (diene-products); assay type: biochemical; conditions: 5 μM CuCl2, 30° C., PBS; for inhibition of LDL oxidation, concentration dependence: absorbance at 234 nm over 225 minutes; for inhibition of LDL oxidation at 5 μM: 5 μM compound; for inhibition of LDL oxidation at 5 μM / inhibition of LDL oxidation at 10 μM: 234 nm; for inhibition of LDL oxidation at 10 μM: 10 μM compound
Description: Copper-catalyzed LDL-oxidation was monitored by following the increase in absorbance at wavelength 234 nm over time (representing increase in diene-products).
Human LDL (1.025<d<1.050 g/ml) was freshly isolated (from sera of normolipidemic donors who had fasted overnight) by sequential ultracentrifugation, in the presence of EDTA (1.4 mg/ml) to inihibit lipid peroxidation. LDL was finally dialyzed under nitrogen against 10 mM phosphate buffer with 160 mM NaCl, pH 7.4 (PBS), for 24 h at 4° C.
Assays were performed at 30° C. in PBS by mixing 200 μl of the LDL-containing dialysate to PBS to a final volume of 2000 μl. The LDL-oxidation was started by adding 5 μM CuCl2 and the changes in absorbance at wavelength 234 nm was followed over 225 minutes.

[1] = Plasma metallo-PLED by HPLC after oral (intragastric) administration to rats; assay type: in vivo; conditions: rat, 100 μmol/kg MnPLED into the stomach, 5 minutes after administration
Description: In order to get a rough estimate of the bioavailability of MnPLED after oral administration, rats were instilled with MnPLED into the stomach and the plasma concentrations of metallo-PLED was determined at various times after administration.
100 μmol/kg MnPLED was instilled into the stomach. Blood (ca 4.5 ml) was withdrawn by cardiac puncture (under CO2 -anaesthesia) and collected in tubes containing heparin (trace metal analysis tubes), 5, 30, 60, 120 minutes and 24 hours after oral administration (2 rats for each time point). Plasma was prepared by centrifugation and ultrafiltration and metallo-PLED was determined by HPLC as described by Toft et al. 1997 (Acta Radiologica 38: 677-689).

| Substance | inhibition of LDL oxidation, concentration dependence (human LDL) | inhibition of LDL oxidation at 5 μM (human LDL) | inhibition of LDL oxidation at 10 μM (human LDL) | presence of MnPLED in plasma ([1]; one animal) | transmetallation of MnPLED into ZnPLED ([1]; plasma) |
| --- | --- | --- | --- | --- | --- |
| MnDPDP | inhibited LDL oxidation in a concentration-dependent manner | more than 50% | almost complete inhibition | – | – |
| dihydrogen [N,N'-ethylenebis [N-[[3-hydroxy-5-(hydroxymethyl)-2-methyl-4-pyridyl]methyl] glycinato] (4-)] manganate(2-) [MnPLED] | inhibited LDL oxidation in a concentration-dependent manner | more than 50% | almost complete inhibition | may indicate the presence of small amounts of MnPLED in plasma | most of the MnPLED has already been transmetallated into ZnPLED |
